Values of other authors as cited in patent publication US20030118473A1, “Method and apparatus for ozone decontamination of biological liquids” (priority 2001, published 2003).

Tested on: hepatitis C infection
Conditions: preliminary research on hepatitis C infection; ozone therapy

O=[O+][O-] [ozone, Ozone]
effect on hepatic enzymes (SGOT, SGPT, alkaline phosphatase): significantly normalize hepatic enzymes
